Structures can show the parent of a compound that is named as a salt.
Target: T1, human LPA1 (Homo sapiens, UniProt Q92633)
T1 construct: expressed in transfected cells; host or cells: Chinese hamster ovary (CHO) cells
Assay: LPA1 functional antagonist assay (calcium flux)
Format: cell-based
Settings: CHO cells overexpressing human LPA1; inhibition of calcium flux induced by 10 nM LPA; read-out: hLPA1 IC50
Description: The effectiveness of compounds of the present invention as LPA1 inhibitors can be determined in an LPA1 functional antagonist assay as follows: • Chinese hamster ovary cells overexpressing human LPA1 were plated overnight (15,000 cells/well) in poly-D-lysine coated 384-well microplates (Greiner bio-one, Cat #781946) in DMEM/F12 medium (Gibco, Cat #11039). Following overnight culture, cells were loaded with calcium indicator dye (AAT Bioquest Inc, Cat #34601) for 30 minutes at 37° C. The cells were then equilibrated to room temperature for 30 minutes before the assay. Test compounds solubilized in DMSO were transferred to 384 well non-binding surface plates (Corning, Cat #3575) using the Labcyte Echo acoustic dispense and diluted with assay buffer [[…] with calcium/magnesium (Gibco Cat #14025-092), 20 mM HEPES (Gibco Cat #15630-080) and 0.1% fatty acid free BSA (Sigma Cat #A9205)] to a final concentration of 0.5% DMSO. Diluted compounds were added to the cells by FDSS6000 (Hamamatsu) at final concentrations ranging from 0.08 nM to 5 μM. and were then incubated for 20 min at room temperature at which time LPA (Avanti Polar Lipids Cat #857130C) was added at final concentrations of 10 nM to stimulate the cells. The compound IC50 value was defined as the concentration of test compound which inhibited 50% of the calcium flux induced by LPA alone. IC50 values were determined by fitting data to a 4-parameter logistic equation (GraphPad Prism, San Diego CA). b. In Vivo Assays LPA Challenge with Plasma Histamine Evaluation.

T1 sequence (Q92633 whole entry): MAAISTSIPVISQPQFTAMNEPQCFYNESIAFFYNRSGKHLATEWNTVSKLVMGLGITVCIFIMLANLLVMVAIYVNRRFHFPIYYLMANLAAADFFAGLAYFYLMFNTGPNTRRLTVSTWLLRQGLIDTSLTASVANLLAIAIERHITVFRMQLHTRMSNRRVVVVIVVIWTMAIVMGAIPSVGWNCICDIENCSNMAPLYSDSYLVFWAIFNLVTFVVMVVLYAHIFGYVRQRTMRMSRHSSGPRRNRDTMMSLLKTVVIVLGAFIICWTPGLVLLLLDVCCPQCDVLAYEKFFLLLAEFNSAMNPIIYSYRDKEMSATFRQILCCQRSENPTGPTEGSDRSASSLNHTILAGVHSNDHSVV

| Compound | IC50 |
| --- | --- |
| Cc1nc(-c2nnn(C)c2COC(=O)N(C)CC2CCC2)ccc1O[C@@H]1C[C@H]2C[C@H]2[C@H](C(=O)O)C1 (racemic) [Example 1, (±)-(1R,2R,4R,6R)-4-((6-(5-((((cyclobutylmethyl)(methyl)carbamoyl)oxy)methyl)-1-methyl-1H-1,2,3-triazol-4-yl)-2-methylpyridin-3-yl)oxy)bicyclo[4.1.0]heptane-2-carboxylic Acid] | 27 nM |
| Cc1nc(-c2nnn(C)c2COC(=O)N(C)CC2CCC2)ccc1O[C@H]1C[C@H]2C[C@H]2[C@H](C(=O)O)C1 (racemic) [Example 2, (±)-(1R,2R,4S,6R)-4-((6-(5-((((cyclobutylmethyl)(methyl)carbamoyl)oxy)methyl)-1-methyl-1H-1,2,3-triazol-4-yl)-2-methylpyridin-3-yl)oxy) bicyclo[4.1.0]heptane-2-carboxylic Acid] | 26 nM |
| Cc1nc(-c2nnn(C)c2COC(=O)N(C)CC2CCC2)ccc1O[C@H]1CC2C[C@H]2[C@@H](C(=O)O)C1 (mixture of isomers) [Example 7, (±)-(1R,2S,4S,6R)-4-((6-(5-((((cyclobutylmethyl)(methyl)carbamoyl)oxy)methyl)-1-methyl-1H-1,2,3-triazol-4-yl)-2-methylpyridin-3-yl)oxy)bicyclo[4.1.0]heptane-2-carboxylic Acid] | 40 nM |
| Cc1nc(-c2nnn(C)c2COC(=O)N(C)CC2CCC2)ccc1O[C@@H]1CCC[C@@]2(C(=O)O)C[C@@H]12 (racemic) [Example 10, (±)-(1R,5R,6R)-5-((6-(5-((((cyclobutylmethyl)(methyl)carbamoyl)oxy)methyl)-1-methyl-1H-1,2,3-triazol-4-yl)-2-methylpyridin-3-yl)oxy)bicyclo[4.1.0]heptane-1-carboxylic Acid] | 188 nM |
| CCCN(C)C(=O)OCc1c(-c2ccc(O[C@@H]3COC[C@@H](C(=O)O)C3)c(C)n2)nnn1C (racemic) [Example 17, (±)-trans-5-((2-methyl-6-(1-methyl-5-(((methyl(propyl)carbamoyl)oxy)methyl)-1H-1,2,3-triazol-4-yl)pyridin-3-yl)oxy)tetrahydro-2H-pyran-3-carboxylic Acid, TFA Salt] | 931 nM |
| CCCCCOC(=O)Nc1c(-c2ccc(O[C@H]3COC[C@H](C(=O)O)C3)c(C)n2)nnn1C (racemic) [Example 23, (±)-trans-5-((2-methyl-6-(1-methyl-5-(((pentyloxy)carbonyl)amino)-1H-1,2,3-triazol-4-yl)pyridin-3-yl)oxy)tetrahydro-2H-pyran-3-carboxylic Acid, TFA Salt] | 157 nM |
| Cc1nc(-c2nnn(C)c2Cn2nnc(CC3CCCC3)n2)ccc1O[C@@H]1COC[C@@H](C(=O)O)C1 (racemic) [Example 24, (±)-trans-5-((6-(5-((5-(cyclopentylmethyl)-2H-tetrazol-2-yl)methyl)-1-methyl-1H-1,2,3-triazol-4-yl)-2-methylpyridin-3-yl)oxy)tetrahydro-2H-pyran-3-Carboxylic Acid, TFA Salt] | 420 nM |
| Cc1nc(-c2nnn(C)c2COC(=O)N(C)CC2CCCC2)ccc1OC1COCC(C(=O)O)C1 (racemic) [Example 28, (±)-trans-5-((6-(5-((((cyclopentylmethyl)(methyl)carbamoyl)oxy)methyl)-1-methyl-1H-1,2,3-triazol-4-yl)-2-methylpyridin-3-yl)oxy)tetrahydro-2H-pyran-3-carboxylic Acid, TFA Salt] | 225 nM |

Next, values leading:

| IC50 | Compound |
| --- | --- |
| 159 nM | Cc1nc(-c2nnn(C)c2CNc2nccc(-c3ccccn3)n2)ccc1OC1CCC2C(C(=O)O)C12 (mixture of isomers) [Example 48, (±)-(2R)-2-((2-Methyl-6-(1-methyl-54(4-(pyridin-2-yl)pyrimidin-2-yl)amino)methyl)-1H-1,2,3-triazol-4-yl)pyridin-3-yl)oxy)bicyclo[3.1.0]hexane-6-carboxylic Acid] |
| 263 nM | Cc1nc(-c2nnn(C)c2CNc2noc(CCC3CCC3)n2)ccc1O[C@@H]1CCO[C@@H](C(=O)O)C1 (racemic) [Example 33, (±)-trans-4-((6-(5-(((5-(2-cyclobutylethyl)-1,2,4-oxadiazol-3-yl)amino)methyl)-1-methyl-1H-1,2,3-triazol-4-yl)-2-methylpyridin-3-yl)oxy)tetrahydro-2H-pyran-2-carboxylic Acid] |
| 19 nM | Cc1nc(-c2nnn(C)c2COC(=O)N(C)CC2CCC2)ccc1OC1CC[C@H]2C(C(=O)O)[C@@H]12 (mixture of isomers) [Example 41, (±)-(1S,2R,5R)-2-((6-(5-((((cyclobutylmethyl)(methyl)carbamoyl)oxy)methyl)-1-methyl-1H-1,2,3-triazol-4-yl)-2-methylpyridin-3-yl)oxy)bicyclo[3.1.0]hexane-6-carboxylic Acid] |
| 191 nM | Cc1nc(-c2nnn(C)c2CNC(=O)OCC2CCC2)ccc1O[C@@H]1CCC2C(C(=O)O)C21 (mixture of isomers) [Example 47, (±)-(2R)-2-((6-(5-((((cyclobutylmethoxy)carbonyl)amino)methyl)-1-methyl-1H-1,2,3-triazol-4-yl)-2-methylpyridin-3-yl)oxy)bicyclo[3.1.0]hexane-6-carboxylic Acid] |
| 162 nM | Cc1nc(-c2nnn(C)c2COC(=O)N(C)CC2CCC2)ccc1O[C@@H]1CC[C@H]2[C@@H](C(=O)O)[C@H]21 (racemic) [Example 49, (±)-(1S,2R,5R,6R)-2-((6-(5-((((Cyclobutylmethyl)(methyl)carbamoyl)oxy)methyl)-1-methyl-1H-1,2,3-triazol-4-yl)-2-methylpyridin-3-yl)oxy)bicyclo[3.1.0]hexane-6-carboxylic Acid] |
| 105 nM | Cc1nc(-c2nnn(C)c2CNc2nccc(OC3CC3)n2)ccc1OC1CC[C@H]2C(C(=O)O)[C@@H]12 (mixture of isomers) [Example 50, (±)-(1S,2R,5R,6R)-2-((6-(5-(((4-Cyclopropoxypyrimidin-2-yl)amino)methyl)-1-methyl-1H-1,2,3-triazol-4-yl)-2-methylpyridin-3-yl)oxy)bicyclo[3.1.0]hexane-6-carboxylic Acid] |
| 724 nM | CCCN(C)C(=O)OCc1c(-c2ccc(O[C@@H]3CC[C@H]4C(C(=O)O)[C@@H]34)c(C)n2)nnn1C (mixture of isomers) [Example 51, (±)-(1S,2R,5R,6R)-2-((2-methyl-6-(1-methyl-5-(((methyl(propyl)carbamoyl)oxy)methyl)-1H-1,2,3-triazol-4-yl)pyridin-3-yl)oxy)bicyclo[3.1.0]hexane-6-carboxylic Acid] |
| 1720 nM | Cc1nc(-c2nnn(C)c2NC(=O)OCC2CC2)ccc1O[C@@H]1CC[C@H]2C(C(=O)O)[C@@H]12 (mixture of isomers) [Example 52, (±)-(1S,2R,5R,6R)-2-((6-(5-(((cyclopropylmethoxy)carbonyl)amino)-1-methyl-1H-1,2,3-triazol-4-yl)-2-methylpyridin-3-yl)oxy)bicyclo[3.1.0]hexane-6-carboxylic Acid] |
| 239 nM | CC(C)CN(C)C(=O)OCc1c(-c2ccc(O[C@@H]3CC[C@H]4C(C(=O)O)[C@@H]34)cn2)nnn1C (mixture of isomers) [Example 68, (±)-(1S,2R,5R,6R)-2-((6-(5-(((isobutyl(methyl)carbamoyl)oxy)methyl)-1-methyl-1H-1,2,3-triazol-4-yl)pyridin-3-yl)oxy)bicyclo[3.1.0]hexane-6-carboxylic Acid] |
| 453 nM | CCCN(C)C(=O)OCc1c(-c2ccc(O[C@@H]3CC[C@H]4C(C(=O)O)[C@@H]34)cn2)nnn1C (mixture of isomers) [Example 69] |
